Literature values, collected in patent US9040083B2, “Orally effective methylphenidate extended release powder and aqueous suspension product” (Tris Pharma, Inc., priority 2011, dated 2015).

Conditions: oral dosing of radiolabeled methylphenidate in humans

Question: For `COC(=O)C(c1ccccc1)C1CCCCN1` (stereo not shown) [methylphenidate], which “radioactivity recovered in urine” value is on record?
Answer: about 90%
